Usually IC50 stands for the concentration that inhibits the measured activity by half.

Where only a bound is given, the exact number is not on record here.

Test [1] addresses human orexin-2 receptor (Homo sapiens (Human), UniProt O43614). The test can be described thus: FLIPR Ca2+ Flux Assay, orexin-2 receptor (hOX2R FLIPR). The settings on record: CHO cells expressing the human orexin-2 receptor; agonist 70 pM Ala-6,12 human orexin-A. Format: cell-based. Put shortly:
(§1)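 Steps: Fluo-4AM loading of CHO cells (rat OX1R or human OX2R) for 60 min at 37 °C; 5 min compound preincubation; addition of Ala-6,12 orexin-A at 70 pM final; 5 min fluorescence recording. Antagonist IC50 is derived from peak heights against the uninhibited agonist response.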
(In general: Calcium flux is commonly read through the fluorescence of an indicator in the cells.)

For test [2], the target named is hOXIR (orexin-1 receptor) (Homo sapiens, UniProt O43613). The test can be described thus: FLIPR Ca2+ Flux Assay, orexin-1 receptor (hOXIR FLIPR). Format: cell-based. The settings on record: CHO cells expressing the orexin-1 receptor (method text: rat; table head: hOXIR); agonist 70 pM Ala-6,12 human orexin-A. In a few lines:
as §1

human orexin-2 receptor, sequence (O43614 whole entry): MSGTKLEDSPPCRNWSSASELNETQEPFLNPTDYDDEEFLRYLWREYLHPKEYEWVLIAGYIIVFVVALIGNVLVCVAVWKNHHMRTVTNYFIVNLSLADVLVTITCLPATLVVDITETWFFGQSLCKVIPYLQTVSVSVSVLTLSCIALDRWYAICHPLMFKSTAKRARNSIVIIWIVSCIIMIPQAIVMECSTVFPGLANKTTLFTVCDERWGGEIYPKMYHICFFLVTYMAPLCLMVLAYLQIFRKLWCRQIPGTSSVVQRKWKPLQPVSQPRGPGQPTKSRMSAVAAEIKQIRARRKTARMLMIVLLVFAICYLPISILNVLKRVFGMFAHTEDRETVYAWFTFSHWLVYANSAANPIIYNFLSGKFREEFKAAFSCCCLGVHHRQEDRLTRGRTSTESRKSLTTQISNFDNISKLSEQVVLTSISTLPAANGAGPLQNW

Regarding `C[C@@H]1CC[C@@H](n2ncc(C(C)(C)O)n2)CN1C(=O)c1ccccc1OCC(F)(F)F` [Example 16, ((2R,5R)-5-(4-(2-Hydroxypropan-2-yl)-2H-1,2,3-triazol-2-yl)-2-methylpiperidin-1-yl)(2-(2,2,2-trifluoroethoxy)phenyl)methanone], the IC50 was 22.8 nM in test [1] and more than 10000 nM in test [2].
For the molecule `COc1ccc(C(=O)N2C[C@H](n3ncc(C(C)(C)O)n3)CC[C@H]2C)c(-n2nccn2)c1` [Example 54, 2-{2-[(3R,6R)-1-{[4-methoxy-2-(2H-1,2,3-triazol-2-yl)phenyl]carbonyl}-6-methylpiperidin-3-yl]-2H-1,2,3-triazol-4-yl}propan-2-ol], the IC50 in test [1] is 53.3 nM; in test [2] it was more than 10000 nM.
For the molecule `C[C@@H]1CC[C@@H](n2cc([C@](C)(O)C(F)(F)F)cn2)CN1C(=O)c1ccccc1-n1nccn1` [Example 106, (2S)-1,1,1-Trifluoro-2-{1-[(3R,6R)-6-methyl-1-{[2-(2H-1,2,3-triazol-2-yl)phenyl]carbonyl}piperidin-3-yl]-1H-pyrazol-4-yl}propan-2-ol], the results for the IC50 in test [1] and in test [2] were 10.6 nM and 2060 nM, respectively.
In the case of `C[C@@H]1CC[C@@H](n2cc(C(C)(C)O)cn2)CN1C(=O)c1ccccc1-n1cccn1` [Example 93, 2-{1-[(3R,6R)-6-Methyl-1-{[2-(1H-pyrazol-1-yl)phenyl]carbonyl}piperidin-3-yl]-1H-pyrazol-4-yl}propan-2-ol], the IC50 was 92.7 nM in test [1] and more than 10000 nM in test [2].
For `COC(=O)c1cnn([C@@H]2CC[C@@H](C)N(C(=O)c3ccccc3-n3nccn3)C2)n1` [Example 24, Methyl 2-((3R,6R)-1-(2-(2H-1,2,3-triazol-2-yl)benzoyl)-6-methylpiperidin-3-yl)-2H-1,2,3-triazole-4-carboxylate], the IC50 is 512 nM in test [1] and more than 10000 nM in test [2].
The corresponding values for `C[C@@H]1CC[C@@H](n2ncc(C(C)(C)O)n2)CN1C(=O)c1ccccc1C1(C#N)CC1` [Example 1, 1-(2-((2R,5R)-5-(4-(2-Hydroxypropan-2-yl)-2H-1,2,3-triazol-2-yl)-2-methylpiperidine-1-carbonyl)phenyl)cyclopropanecarbonitrile] are 13.8 nM and 1160 nM.
For `Cc1nc(-c2cc(F)ccc2C(=O)N2C[C@H](n3ncc(C(C)(C)O)n3)CC[C@H]2C)no1` [Example 40, 2-{2-[(3R,6R)-1-{[4-fluoro-2-(5-methyl-1,2,4-oxadiazol-3-yl)phenyl]carbonyl}-6-methylpiperidin-3-yl]-2H-1,2,3-triazol-4-yl}propan-2-ol], the results for the IC50 in test [1] and in test [2] were 86.7 nM and more than 10000 nM, respectively.
As to `C[C@@H]1CC[C@@H](n2ncc(C(C)(C)O)n2)CN1C(=O)c1cccc2ccnn12` [Example 57, 2-{2-[(3R,6R)-6-Methyl-1-(pyrazolo[1,5-a]pyridin-7-ylcarbonyl)piperidin-3-yl]-2H-1,2,3-triazol-4-yl}propan-2-ol], the IC50 is 489 nM in test [1] and more than 10000 nM in test [2].
Regarding `C[C@@H]1CC[C@@H](n2cc([C@@H](O)C(F)(F)F)cn2)CN1C(=O)c1ccccc1-n1nccn1` [Example 102, (1R)-2,2,2-Trifluoro-1-{1-[(3R,6R)-6-methyl-1-{[2-(2H-1,2,3-triazol-2-yl)phenyl]carbonyl}piperidin-3-yl]-1H-pyrazol-4-yl}ethanol], the figures for the IC50 in test [1] and in test [2] were 124 nM and more than 10000 nM, respectively.
On the same counts, the results for `Cc1nc(-c2ccccc2C(=O)N2C[C@H](n3ncc(C(C)(C)O)n3)CC[C@H]2C)no1` [Example 47, 2-{2-[(3R,6R)-6-methyl-1-{[2-(5-methyl-1,2,4-oxadiazol-3-yl)phenyl]carbonyl}piperidin-3-yl]-2H-1,2,3-triazol-4-yl}propan-2-ol] are 45.7 nM and more than 10000 nM.

The values are drawn from US10010539B2, “Pyrazole, triazole and tetrazole orexin receptor antagonists” (MERCK SHARP & DOHME CORP., priority 2014, dated 2018).
